Assay results taken from patent US20070128217A1 (priority 2003, published 2007).

Columns and labels:
[1] = test system: control sera (pooled serum of ten healthy LUMC hospital workers; commercial negative donor pooled serum from the Dutch bloodbank); format: binding, human; design: Binding of Control serum LUMC to linear peptides / Binding of Control serum Blood-bank to linear peptides / Binding of Control serum LUMC to looped peptides / Binding of Control Serum Blood-Bank to Looped peptides / Binding of Control serum LUMC to linear peptides of the protein M of SARS-CoV Urbani / Binding of Control serum Blood-bank to linear peptides of the protein M of SARS-CoV Urbani / Binding of Control serum LUMC to looped peptides of the protein M of SARS-CoV Urbani / Binding of Control Serum Blood-Bank to Looped peptides of the protein M of SARS-CoV Urbani: unit not given here
[2] = test system: rabbit serum obtained by immunizing a rabbit with the SARS-CoV strain Frankfurt 1; format: binding; design: Binding of a rabbit serum to linear peptides / Binding of a rabbit serum to looped peptides / Rabbit serum linear peptides / Rabbit serum looped peptides / Binding of a rabbit serum to linear peptides of protein N of SARS-CoV Urbani (Rabbit serum linear peptides) / Binding of a rabbit serum to looped/cyclic peptides of protein N of SARS-CoV Urbani (Rabbit serum looped peptides): unit not given here
[3] = test system: antibodies in sera from SARS patients (sera 1a, 1b, 2, 6, 37, 62, London, SARS-yellow, SARS-green); format: binding, human; design: Binding of serum 6 to linear peptides of protein X1 of SARS-CoV Urbani / Binding of serum 37 to linear peptides of protein X1 of SARS-CoV Urbani / Binding of serum 6 to looped/cyclic peptide (PEPSCAN-ELISA) / Binding of serum 37 to looped/cyclic peptide (PEPSCAN-ELISA) / Binding of serum 37 to looped/cyclic peptides of protein X1 of SARS-CoV Urbani / Binding of serum 6 to linear peptides of protein X2 / Binding of serum 37 to linear peptides of protein X2 / Binding of serum 37 to looped/cyclic peptides of protein X2 of SARS-CoV Urbani / Binding of serum 6 to linear peptides of protein M of SARS-CoV Urbani / Binding of serum 37 to linear peptides of protein M of SARS-CoV Urbani / Binding of serum 6 to looped/cyclic peptides of protein M of SARS-CoV Urbani / Binding of serum 37 to looped/cyclic peptides of protein M of SARS-CoV Urbani / Binding of serum 6 to linear peptides of protein X3 of SARS-CoV Urbani / Binding of serum 37 to linear peptides of protein X3 of SARS-CoV Urbani / Binding of serum 37 to looped/cyclic peptides of protein X3 of SARS-CoV Urbani / Binding of serum 6 to linear peptides of protein X4 of SARS-CoV Urbani / Binding of serum 37 to linear peptides of protein X4 of SARS-CoV Urbani / Binding of serum 37 to looped/cyclic peptides of protein X4 of SARS-CoV Urbani / Binding of serum 6 to linear peptides of protein X5 of SARS-CoV Urbani / Binding of serum 37 to linear peptides of protein X5 of SARS-CoV Urbani / Binding of serum 37 to looped/cyclic peptides of protein X5 of SARS-CoV Urbani / Binding of serum 6 to linear peptides of protein N of SARS-CoV Urbani / Binding of serum 37 to linear peptides of protein N of SARS-CoV Urbani / Binding of serum 6 to linear peptide (PEPSCAN-ELISA) / Binding of serum 1a to looped/cyclic peptides of protein N of SARS-CoV Urbani / Binding of serum 1b to looped/cyclic peptides of protein N of SARS-CoV Urbani / Binding of serum 2 to looped/cyclic peptides of protein N of SARS-CoV Urbani / Binding of serum 6 to looped/cyclic peptides of protein N of SARS-CoV Urbani / Binding of serum 37 to looped/cyclic peptides of protein N of SARS-CoV Urbani / Binding of serum 62 to looped/cyclic peptides of protein N of SARS-CoV Urbani / Binding of serum London to looped/cyclic peptides of protein N of SARS-CoV Urbani / Binding of serum SARS-green to looped/cyclic peptides of protein N of SARS-CoV Urbani: unit not given here

MKIILFLTLIVFTSC
Binding of Control Serum Blood-Bank to Looped peptides [1]: 0.6
Binding of Control serum Blood-bank to linear peptides [1]: 0.6
Binding of Control serum LUMC to linear peptides [1]: 0.5
Binding of Control serum LUMC to looped peptides [1]: 0.7
Rabbit serum linear peptides [2]: 0.7
Rabbit serum looped peptides [2]: 0.4
Binding of serum 1a to linear peptides of protein X4 of SARS-CoV Urbani [3]: 0.6
Binding of serum 1a to looped/cyclic peptides of protein X4 of SARS-CoV Urbani [3]: 0.6
Binding of serum 1b to linear peptides of protein X4 of SARS-CoV Urbani [3]: 0.5
Binding of serum 1b to looped/cyclic peptides of protein X4 of SARS-CoV Urbani [3]: 0.0
Binding of serum 2 to linear peptides of protein X4 of SARS-CoV Urbani [3]: 0.4
Binding of serum 2 to looped/cyclic peptides of protein X4 of SARS-CoV Urbani [3]: 0.5
Binding of serum 6 to linear peptides of protein X4 of SARS-CoV Urbani [3]: 0.4
Binding of serum 6 to looped/cyclic peptides of protein X4 of SARS-CoV Urbani [3]: 0.5
Binding of serum 37 to linear peptides of protein X4 of SARS-CoV Urbani [3]: 0.7
Binding of serum 37 to looped/cyclic peptides of protein X4 of SARS-CoV Urbani [3]: 0.6
Binding of serum 62 to linear peptides of protein X4 of SARS-CoV Urbani [3]: 0.7
Binding of serum 62 to looped/cyclic peptides of protein X4 of SARS-CoV Urbani [3]: 0.5
Binding of serum London to linear peptides of protein X4 of SARS-CoV Urbani [3]: 0.7
Binding of serum London to looped/cyclic peptides of protein X4 of SARS-CoV Urbani [3]: 0.2
Binding of serum SARS-green to linear peptides of protein X4 of SARS-CoV Urbani [3]: 0.4
Binding of serum SARS-green to looped/cyclic peptides of protein X4 of SARS-CoV Urbani [3]: 0.3
Binding of serum SARS-yellow to linear peptides of protein X4 of SARS-CoV Urbani [3]: 0.5
Binding of serum SARS-yellow to looped/cyclic peptides of protein X4 of SARS-CoV Urbani [3]: 0.6

MLHSSSLTSLLKTHR
Binding of Control Serum Blood-Bank to Looped peptides [1]: 0.6
Binding of Control serum Blood-bank to linear peptides [1]: 0.5
Binding of Control serum LUMC to linear peptides [1]: 0.4
Binding of Control serum LUMC to looped peptides [1]: 0.5
Binding of a rabbit serum to linear peptides [2]: 0.2
Binding of a rabbit serum to looped peptides [2]: 0.5
Binding of serum 1a to linear peptides of protein X2 [3]: 0.6
Binding of serum 1a to looped/cyclic peptides of protein X2 of SARS-CoV Urbani [3]: 0.5
Binding of serum 1b to linear peptides of protein X2 [3]: 0.4
Binding of serum 1b to looped/cyclic peptides of protein X2 of SARS-CoV Urbani [3]: 0.5
Binding of serum 2 to linear peptides of protein X2 [3]: 0.4
Binding of serum 2 to looped/cyclic peptides of protein X2 of SARS-CoV Urbani [3]: 0.5
Binding of serum 6 to linear peptides of protein X2 [3]: 0.6
Binding of serum 6 to looped/cyclic peptides of protein X2 of SARS-CoV Urbani [3]: 0.2
Binding of serum 37 to linear peptides of protein X2 [3]: 0.5
Binding of serum 37 to looped/cyclic peptides of protein X2 of SARS-CoV Urbani [3]: 0.3
Binding of serum 62 to linear peptides of protein X2 [3]: 0.5
Binding of serum 62 to looped/cyclic peptides of protein X2 of SARS-CoV Urbani [3]: 0.5
Binding of serum London to linear peptides of protein X2 [3]: 0.6
Binding of serum London to looped/cyclic peptides of protein X2 of SARS-CoV Urbani [3]: 0.2
Binding of serum SARS-green to linear peptides of protein X2 [3]: 0.5
Binding of serum SARS-green to looped/cyclic peptides of protein X2 of SARS-CoV Urbani [3]: 0.4
Binding of serum SARS-yellow to linear peptides of protein X2 [3]: 0.5
Binding of serum SARS-yellow to looped/cyclic peptides of protein X2 of SARS-CoV Urbani [3]: 0.5

MLLQFAYSNRNRFLY
Binding of Control Serum Blood-Bank to Looped peptides of the protein M of SARS-CoV Urbani [1]: 0.4
Binding of Control serum Blood-bank to linear peptides of the protein M of SARS-CoV Urbani [1]: 0.6
Binding of Control serum LUMC to linear peptides of the protein M of SARS-CoV Urbani [1]: 0.3
Binding of Control serum LUMC to looped peptides of the protein M of SARS-CoV Urbani [1]: 0.5
Rabbit serum linear peptides [2]: 0.5
Rabbit serum looped peptides [2]: 0.0
Binding of serum 1a to linear peptides of protein M of SARS-CoV Urbani [3]: 0.6
Binding of serum 1a to looped/cyclic peptides of protein M of SARS-CoV Urbani [3]: 0.8
Binding of serum 1b to linear peptides of protein M of SARS-CoV Urbani [3]: 0.4
Binding of serum 1b to looped/cyclic peptides of protein M of SARS-CoV Urbani [3]: 0.2
Binding of serum 2 to linear peptides of protein M of SARS-CoV Urbani [3]: 0.5
Binding of serum 2 to looped/cyclic peptides of protein M of SARS-CoV Urbani [3]: 0.6
Binding of serum 6 to linear peptides of protein M of SARS-CoV Urbani [3]: 0.2
Binding of serum 6 to looped/cyclic peptides of protein M of SARS-CoV Urbani [3]: 1.3
Binding of serum 37 to linear peptides of protein M of SARS-CoV Urbani [3]: 0.8
Binding of serum 37 to looped/cyclic peptides of protein M of SARS-CoV Urbani [3]: 0.6
Binding of serum 62 to linear peptides of protein M of SARS-CoV Urbani [3]: 0.7
Binding of serum 62 to looped/cyclic peptides of protein M of SARS-CoV Urbani [3]: 0.5
Binding of serum London to linear peptides of protein M of SARS-CoV Urbani [3]: 0.2
Binding of serum London to looped/cyclic peptides of protein M of SARS-CoV Urbani [3]: 0.3
Binding of serum SARS-green to linear peptides of protein M of SARS-CoV Urbani [3]: 0.2
Binding of serum SARS-green to looped/cyclic peptides of protein M of SARS-CoV Urbani [3]: 0.2
Binding of serum SARS-yellow to linear peptides of protein M of SARS-CoV Urbani [3]: 0.1
Binding of serum SARS-yellow to looped/cyclic peptides of protein M of SARS-CoV Urbani [3]: 0.3

MMSRRRLLACLCKHK
Binding of Control Serum Blood-Bank to Looped peptides [1]: 0.2
Binding of Control serum Blood-bank to linear peptides [1]: 0.8
Binding of Control serum LUMC to linear peptides [1]: 0.5
Binding of Control serum LUMC to looped peptides [1]: 0.2
Binding of a rabbit serum to linear peptides [2]: 0.4
Binding of a rabbit serum to looped peptides [2]: 0.3
Binding of serum 1a to looped/cyclic peptides of protein X2 of SARS-CoV Urbani [3]: 0.2
Binding of serum 1b to looped/cyclic peptides of protein X2 of SARS-CoV Urbani [3]: 0.2
Binding of serum 2 to looped/cyclic peptides of protein X2 of SARS-CoV Urbani [3]: 0.1
Binding of serum 6 to looped/cyclic peptides of protein X2 of SARS-CoV Urbani [3]: 0.0
Binding of serum 37 to looped/cyclic peptides of protein X2 of SARS-CoV Urbani [3]: 0.2
Binding of serum 62 to looped/cyclic peptides of protein X2 of SARS-CoV Urbani [3]: 0.3
Binding of serum London to looped/cyclic peptides of protein X2 of SARS-CoV Urbani [3]: 0.1
Binding of serum SARS-green to looped/cyclic peptides of protein X2 of SARS-CoV Urbani [3]: 0.1
Binding of serum SARS-yellow to looped/cyclic peptides of protein X2 of SARS-CoV Urbani [3]: 0.2
Recognition of the peptide by sera of SARS-CoV infected individuals, and form (linear, looped/cyclic) in which it is recognized [3]: recognized in linear form

MRCWLCWKCKSKNPL
Binding of Control Serum Blood-Bank to Looped peptides [1]: 0.2
Binding of Control serum Blood-bank to linear peptides [1]: 0.9
Binding of Control serum LUMC to linear peptides [1]: 0.8
Binding of Control serum LUMC to looped peptides [1]: 0.4
Binding of a rabbit serum to linear peptides [2]: 0.1
Binding of a rabbit serum to looped peptides [2]: 0.5
Binding of serum 1a to looped/cyclic peptide (PEPSCAN-ELISA) [3]: 0.2
Binding of serum 1b to looped/cyclic peptide (PEPSCAN-ELISA) [3]: 0.2
Binding of serum 2 to looped/cyclic peptide (PEPSCAN-ELISA) [3]: 0.0
Binding of serum 6 to looped/cyclic peptide (PEPSCAN-ELISA) [3]: 0.1
Binding of serum 37 to looped/cyclic peptide (PEPSCAN-ELISA) [3]: 0.2
Binding of serum 62 to looped/cyclic peptide (PEPSCAN-ELISA) [3]: 0.3
Binding of serum London to looped/cyclic peptide (PEPSCAN-ELISA) [3]: 0.2
Binding of serum SARS-green to looped/cyclic peptide (PEPSCAN-ELISA) [3]: 0.1
Binding of serum SARS-yellow to looped/cyclic peptide (PEPSCAN-ELISA) [3]: 0.2
Recognition of the peptide by sera of SARS-CoV infected individuals, and form (linear, looped/cyclic) in which it is recognized [3]: recognized in linear form
